# According to US20170112564A1, “METHODS AND MATERIALS FOR TREATING HYPERTENSION” (Mayo Foundation for Medical Education and Research, priority 2014, published 2017):
# Columns and labels:
# [1] = system: young and older postmenopausal women; experiment: Ganglionic (autonomic) blockade with trimethaphan camsylate in young and older postmenopausal women: blood pressure and muscle sympathetic nerve activity; format: in vivo, humans; details: during trimethaphan
# Excerpt: FIG. 1 is a graph plotting muscle sympathetic nerve activity (MSNA; bursts/min) as measured using a microneurography technique for 24 humans. The dose indicates the amount of trimethaphan in mg/min it took to abolish the sympathetic nerve bursts. The MSNA bursts per minute is the amount of sympathetic bursts that occurred at baseline, prior to drug infusion.
# FIG. 2 is a graph plotting the same dose of trimethaphan in mg/min compared to the difference in mean arterial pressure (MAP) between baseline and at the final trimethaphan dose.
# The effect of ganglionic blockade on arterial blood pressure and how this relates to baseline muscle sympathetic nerve activity in 12 young (25±1 years) and 12 older postmenopausal (61±2 years) women were examined. The women were studied before and during autonomic blockade using trimethaphan camsylate. At baseline, muscle sympathetic nerve activity burst frequency and burst incidence were higher in the older women (33±3 versus 15±1 bursts/min; 57±5 versus 25±2 bursts/100 heartbeats, respectively; P<0.05). Muscle sympathetic nerve activity bursts were abolished by trimethaphan within minutes (e.g., between about 6 and about 35 minutes). […] Baseline muscle sympathetic nerve activity was associated with the decrease in mean arterial pressure during trimethaphan (r=−0.74; P<0.05). See, also, Barnes et al., Hypertension, 63:303-308 (2014).
# healthy humans = experiment: Brief escalating doses of trimethaphan camsylate with beat-to-beat arterial pressure to distinguish high and low sympathetic activity individuals; format: in vivo; details: 24 healthy humans, infusion 1-4 mg/minute for 5-10 minutes
# Method: Both normal human subjects and patients with diseases such as resistant hypertension can have very wide ranges of baseline sympathetic activity. The following was developed to distinguish those individuals with high levels of baseline sympathetic activity from individuals with lower levels of baseline sympathetic activity. Trimethaphan camsylate, a ganglionic blocking drug, was administered (e.g., by infusion) at 1-4 mg/minute for 5-10 minutes to 24 healthy humans, while non-invasive beat-to-beat measurements of arterial pressure were made. […] The relationship between the fall in blood pressure and baseline sympathetic activity in a group of about 20-30 healthy women ranging in age from their early 20's to their later 60's was determined (FIGS. 1 and 2). Similar data were obtained using healthy men. […] Those individuals with an elevated level of sympathetic activity responsive to a ganglionic blocking drug (e.g., a reduction in the number of bursts per minute that is greater than 10 burst per minute) can be optimal candidates for sympatholytic therapy.
# [2] = older postmenopausal women (61±2 years, n=12)
structure (smiles),measurement,setting,value
"O=C1N(Cc2ccccc2)C2C[S+]3CCCC3C2N1Cc1ccccc1 (stereo not drawn) [trimethaphan, trimethaphan camsylate]",Muscle sympathetic nerve activity bursts,[1]; 12 young and 12 older postmenopausal women,abolished
same,decrease in mean arterial pressure,[1]; [2],−29±2 mm Hg
same,decrease in total peripheral resistance,[1]; [2],−10±1 mm Hg/L per minute
same,decrease in mean arterial pressure,"[1]; young women (25±1 years, n=12)",−9±2 mm Hg
same,decrease in total peripheral resistance,"[1]; young women (25±1 years, n=12)",−5±1 mm Hg/L per minute
same,fall in blood pressure,healthy humans,directly related to baseline sympathetic activity
